The results in this text go back to patent publication US12661410B2, “Compounds for targeted degradation of RET” (C4 Therapeutics, Inc., priority 2020, dated 2026).

Assay [1] deals with T1, RET(KD: 658-1114 G810R) (Homo sapiens, UniProt P07949, G810R).
T1 construct: 658-1114; expressed in transfected cells; host or cells: 293T.165 (293T cells, generated in-house)
T1 sequence (P07949 658-1114 G810R): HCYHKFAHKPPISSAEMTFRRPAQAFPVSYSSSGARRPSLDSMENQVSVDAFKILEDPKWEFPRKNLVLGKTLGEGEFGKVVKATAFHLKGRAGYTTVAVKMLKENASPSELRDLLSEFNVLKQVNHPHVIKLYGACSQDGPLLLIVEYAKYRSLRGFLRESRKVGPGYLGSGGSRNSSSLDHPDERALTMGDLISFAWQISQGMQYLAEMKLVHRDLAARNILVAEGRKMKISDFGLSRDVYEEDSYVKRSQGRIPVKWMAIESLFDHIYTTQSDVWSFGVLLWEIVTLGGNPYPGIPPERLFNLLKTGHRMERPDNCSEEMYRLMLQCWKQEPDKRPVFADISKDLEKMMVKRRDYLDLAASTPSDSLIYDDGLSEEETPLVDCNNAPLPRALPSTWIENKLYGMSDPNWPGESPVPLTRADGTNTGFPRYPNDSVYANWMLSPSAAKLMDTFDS
The assay is described as follows: HiBiT-Degradation, RET G810R degradation assay (Nano-Glo HiBiT Lytic), 293T.165 cells. It is filed as cell-based. The conditions noted are these: for Emax / DC50: 6.0 hours; for Emax: % remaining protein, read-out: 293T.165 RET(KD: 658-1114 G810R) 6.0 hours (Emax); for DC50: half-maximal degradation concentration, read-out: 293T.165 RET(KD: 658-1114 G810R) 6.0 hours (DC50). The gist of the method: (§1)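 6 h treatment, 293T.144 (WT) / 293T.165 (G810R) cells ectopically expressing HiBiT-fused RET KD; 11-pt half-log dilution, top 10 μM, n=2. Nano-Glo HiBiT lytic detection, luminescence. Output: DC50, Emax (% protein remaining).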
(In general: With HiBiT, luminescence reflects the tagged protein that the partner subunit can reach.)

The target of assay [2] is T2, RET (658-1114) (Homo sapiens, UniProt P07949).
T2 construct: 658-1114; expressed in transfected cells; host or cells: 293T.144 (293T cells, generated in-house)
T2 sequence (P07949 658-1114): T1 sequence (P07949 658-1114 G810R) with R153G
The assay is described as follows: HiBiT-Degradation, RET wild-type degradation assay (Nano-Glo HiBiT Lytic), 293T.144 cells. Format: cell-based. To be noted: for Emax / DC50: 6.0 hours; for Emax: % remaining protein, read-out: 293T.144 RET (658-1114) 6.0 hours (Emax); for DC50: half-maximal degradation concentration, read-out: 293T.144 RET (658-1114) 6.0 hours (DC50). The gist of the method:
as §1

SMILES strings stand for the structures. Changes are numbered by the printed parent chain.

One may read the Emax as the greatest response seen or fitted, relative to the assay's reference. The term DC50 denotes the concentration giving 50% degradation. In the case of `CCC1(C(=O)NC(C)C)CCN(c2ccc(-c3nc(-c4cnn(C5CCC6(CC5)CN(C(=O)CC5(O)CCN(c7ccc(NC8CCC(=O)NC8=O)cc7F)CC5)C6)c4)cn4ncc(C#N)c34)cn2)CC1` (stereo not drawn) [Compound 182, 1-(5-(3-Cyano-6-(1-(2-(2-(1-(4-((2,6-dioxopiperidin-3-yl)amino)-2-fluorophenyl)-4-hydroxypiperidin-4-yl)acetyl)-2-azaspiro[3.5]nonan-7-yl)-1H-pyrazol-4-yl)pyrazolo[1,5-a]pyrazin-4-yl)pyridin-2-yl)-4-ethyl-N-isopropylpiperidine-4-carboxamide], in assay [1], the “293T.165 RET(KD: 658-1114 G810R) 6.0 hours (IP) [nM]” value is listed as “++++ (<50 nM = ++++)”, the maximal effect (Emax) was below 50% and the half-maximal degradation concentration (DC50) is below 50 nM. In assay [2], the “293T.144 RET (658-1114) 6.0 hours (IP) [nM]” value (“293T.144 RET” for short) is given as “++++ (<50 nM = ++++)”, the maximal effect (Emax) is below 30% and the DC50 is below 50 nM.

For the compound `CCC1(C(=O)NC(C)C)CCN(c2ccc(-c3nc(-c4cnn(C5CC6(C5)CN(C(=O)CC5(O)CCN(c7ccc(NC8CCC(=O)NC8=O)cc7F)CC5)C6)c4)cn4ncc(C#N)c34)cn2)CC1` (stereo not drawn) [Compound 183, 1-[5-[3-cyano-6-[1-[2-[2-[1-[4-[(2,6-dioxo-3-piperidyl)amino]-2-fluoro-phenyl]-4-hydroxy-4-piperidyl]acetyl]-2-azaspiro[3.3]heptan-6-yl]pyrazol-4-yl]pyrazolo[1,5-a]pyrazin-4-yl]-2-pyridyl]-4-ethyl-N-isopropyl-piperidine-4-carboxamide], in assay [1], the “293T.165 RET(KD: 658-1114 G810R) 6.0 hours (IP) [nM]” value was “++++ (<50 nM = ++++)”, the Emax is below 30% and the DC50 is below 50 nM. In assay [2], the “293T.144 RET” value is “++++ (<50 nM = ++++)”, the maximum response (Emax) was below 30% and the DC50 is below 50 nM.

With `CCC1(C(=O)NC(C)C)CCN(c2ccc(-c3nc(-c4cnn(C5CN(C(=O)CC6(O)CCN(c7ccc(NC8CCC(=O)NC8=O)cc7F)CC6)C5)c4)cn4ncc(C#N)c34)cn2)CC1` (stereo not drawn) [Compound 184, 1-[5-[3-cyano-6-[1-[1-[2-[1-[4-[(2,6-dioxo-3-piperidyl)amino]-2-fluoro-phenyl]-4-hydroxy-4-piperidyl]acetyl]azetidin-3-yl]pyrazol-4-yl]pyrazolo[1,5-a]pyrazin-4-yl]-2-pyridyl]-4-ethyl-N-isopropyl-piperidine-4-carboxamide], in assay [1], the “293T.165 RET(KD: 658-1114 G810R) 6.0 hours (IP) [nM]” value was “++++ (<50 nM = ++++)”, the Emax is below 30% and the DC50 was below 50 nM. In assay [2], the “293T.144 RET” value is “++++ (<50 nM = ++++)”, the Emax was below 30% and the DC50 is below 50 nM.

With `CC(C)CC(=O)N1CCN(c2ccc(-c3nc(-c4cnn(C5CCN(C(=O)CC6CCN(c7ccc(NC8CCC(=O)NC8=O)cc7F)CC6)CC5)c4)cn4ncc(C#N)c34)cn2)CC1` (stereo not drawn) [Compound 185, 6-(1-(1-(2-(1-(4-((2,6-dioxopiperidin-3-yl)amino)-2-fluorophenyl)piperidin-4-yl)acetyl)piperidin-4-yl)-1H-pyrazol-4-yl)-4-(6-(4-(3-methylbutanoyl)piperazin-1-yl)pyridin-3-yl)pyrazolo[1,5-a]pyrazine-3-carbonitrile], in assay [1], the “293T.165 RET(KD: 658-1114 G810R) 6.0 hours (IP) [nM]” value is on record as “++++ (<50 nM = ++++)”, the Emax was below 50% and the DC50 was below 100 nM. In assay [2], the “293T.144 RET” value is “++++ (<50 nM = ++++)”, the Emax was below 30% and the DC50 was below 50 nM.

Consider `CCC1(C(=O)NC2CCC2)CCN(c2ccc(-c3nc(-c4cnn([C@H]5C[C@](F)(CN6CCN(c7ccc(N[C@H]8CCC(=O)NC8=O)cc7F)CC6)C5)c4)cn4ncc(C#N)c34)cn2)CC1` [Compound 186, 1-[5-[3-cyano-6-[1-[3-[[4-[4-[[(3S)-2,6-dioxo-3-piperidyl]amino]-2-fluoro-phenyl]piperazin-1-yl]methyl]-3-fluoro-cyclobutyl]pyrazol-4-yl]pyrazolo[1,5-a]pyrazin-4-yl]-2-pyridyl]-N-cyclobutyl-4-ethyl-piperidine-4-carboxamide], for which, in assay [1], the “293T.165 RET(KD: 658-1114 G810R) 6.0 hours (IP) [nM]” value is reported as “++++ (<50 nM = ++++)”, the Emax is below 50% and the DC50 was below 50 nM. In addition, in assay [2], the “293T.144 RET” value is on record as “++++ (<50 nM = ++++)”, the Emax is below 50% and the half-maximal degradation concentration (DC50) is below 50 nM.

In the case of `CCC1(C(=O)NC2CCC2)CCN(c2ccc(-c3nc(-c4cnn([C@H]5C[C@](F)(CN6CCN(c7ccc(N[C@@H]8CCC(=O)NC8=O)cc7F)CC6)C5)c4)cn4ncc(C#N)c34)cn2)CC1` [Compound 187, 1-[5-[3-cyano-6-[1-[3-[[4-[4-[[(3R)-2,6-dioxo-3-piperidyl]amino]-2-fluoro-phenyl]piperazin-1-yl]methyl]-3-fluoro-cyclobutyl]pyrazol-4-yl]pyrazolo[1,5-a]pyrazin-4-yl]-2-pyridyl]-N-cyclobutyl-4-ethyl-piperidine-4-carboxamide], in assay [1], the “293T.165 RET(KD: 658-1114 G810R) 6.0 hours (IP) [nM]” value is listed as “++++ (<50 nM = ++++)”, the Emax was below 30% and the DC50 is below 50 nM. In assay [2], the “293T.144 RET” value is “++++ (<50 nM = ++++)”, the Emax was below 30% and the DC50 is below 50 nM.

Regarding `CCC1(C(=O)NC2CCC2)CCN(c2ccc(-c3nc(-c4cnn([C@H]5C[C@H](CN6CCN(c7ccc(N[C@H]8CCC(=O)NC8=O)cc7F)CC6)C5)c4)cn4ncc(C#N)c34)cn2)CC1` [Compound 188, 1-[5-[3-cyano-6-[1-[3-[[4-[4-[[(3S)-2,6-dioxo-3-piperidyl]amino]-2-fluoro-phenyl]piperazin-1-yl]methyl]cyclobutyl]pyrazol-4-yl]pyrazolo[1,5-a]pyrazin-4-yl]-2-pyridyl]-N-cyclobutyl-4-ethyl-piperidine-4-carboxamide], in assay [1], the “293T.165 RET(KD: 658-1114 G810R) 6.0 hours (IP) [nM]” value is recorded as “++++ (<50 nM = ++++)”, the Emax is below 50% and the DC50 was below 50 nM. In addition, in assay [2], the “293T.144 RET” value is recorded as “++++ (<50 nM = ++++)”, the Emax is below 30% and the DC50 is below 50 nM.

With `CCC1(C(=O)NC2CCC2)CCN(c2ccc(-c3nc(-c4cnn([C@H]5CC[C@H](CN6CCN(c7ccc(N[C@H]8CCC(=O)NC8=O)cc7F)CC6)CC5)c4)cn4ncc(C#N)c34)cn2)CC1` [Compound 189, 1-[5-[3-cyano-6-[1-[4-[[4-[4-[[(3S)-2,6-dioxo-3-piperidyl]amino]-2-fluoro-phenyl]piperazin-1-yl]methyl]cyclohexyl]pyrazol-4-yl]pyrazolo[1,5-a]pyrazin-4-yl]-2-pyridyl]-N-cyclobutyl-4-ethyl-piperidine-4-carboxamide], in assay [1], the “293T.165 RET(KD: 658-1114 G810R) 6.0 hours (IP) [nM]” value is “++++ (<50 nM = ++++)”, the maximal effect (Emax) was below 30% and the DC50 is below 100 nM. In addition, in assay [2], the “293T.144 RET” value is “++++ (<50 nM = ++++)”, the Emax was below 30% and the DC50 was below 50 nM.

`CCC1(C(=O)NC2CCC2)CCN(c2ccc(-c3nc(-c4cnn([C@H]5CC[C@H](CN6CCN(c7ccc(N[C@@H]8CCC(=O)NC8=O)cc7F)CC6)CC5)c4)cn4ncc(C#N)c34)cn2)CC1` [Compound 190, 1-[5-[3-cyano-6-[1-[4-[[4-[4-[[(3R)-2,6-dioxo-3-piperidyl]amino]-2-fluoro-phenyl]piperazin-1-yl]methyl]cyclohexyl]pyrazol-4-yl]pyrazolo[1,5-a]pyrazin-4-yl]-2-pyridyl]-N-cyclobutyl-4-ethyl-piperidine-4-carboxamide]: in assay [1], the “293T.165 RET(KD: 658-1114 G810R) 6.0 hours (IP) [nM]” value was “++++ (<50 nM = ++++)”, the maximal effect (Emax) is below 30% and the DC50 is below 100 nM. Further, in assay [2], the “293T.144 RET” value was “++++ (<50 nM = ++++)”, the Emax was below 30% and the 50% degradation concentration (DC50) was below 50 nM.
